Data as given in patent US20250026765A1, “SPIROHETEROCYCLE DERIVATIVE HAVING SEROTONIN RECEPTOR BINDING ACTIVITY” (Shionogi & Co., Ltd., priority 2021, published 2025).
Where two headings read alike, the source gives them in different places.

What was measured:
[1] = target: human recombinant 5-HT2A receptor (Homo sapiens (Human), UniProt P28223); assay: 5-HT2A receptor binding inhibition test ([3H]-Ketanserin); settings: Jump-In HEK cell membrane, 25° C. 1.5 hours
Procedure: Test Example 1: 5-HT2A Receptor Binding Inhibition Test
(§1) (Each Experimental Condition)
Cell membrane: 15 μg of Jump-In HEK cell membrane (expressing human recombinant 5-HT2A receptor) per well
(§2) Assay buffer: Tris-HCl 50 mmol/L (pH 7.4) containing NaCl 120 mmol/L, MgCl2·6H2O 1 mmol/L, KCl 5 mmol/L, 0.1% BSA and CaCl2 2 mmol/L
Radioactive ligand: [^3H]-Ketanserin with a final concentration of around Kd value calculated by the following method
Non-specific ligand: Serotonin HCl with a final concentration of 500 μmol/L
(§3) The Kd value is calculated when the lot of cell membrane is changed. In advance, 0.5 μL of a 1 mmol/L compound for non-specific binding calculation dissolved in DMSO or DMSO is dispensed into a microplate, and the cell membrane is diluted with an Assay buffer. The radioactive ligand solution is serially diluted and the count is confirmed with a liquid scintillator. Assay buffer containing diluted cell membrane is dispensed into a microplate at 50 μL/well. Then, the radioactive ligand solution is dispensed into a microplate at 50 μL/well, and the plate is sealed. It is allowed to stand at room temperature (25° C.) for 1.5 hours. During this period, 50 mmol/L Tris-HCl (pH 7.4) is dispensed into a GF/B UniFilter plate at 50 μL/well and allowed to stand at 4° C. for 1 hour or longer. After that, filtration is performed with Cell harvester (PerkinElmer). The radioactive ligand solution is dispensed into an empty well of the GF/B UniFilter plate at 10 μL/well. After the GF/B UniFilter plate is dried at room temperature, MicroScinti 20 is dispensed into the GF/B UniFilter plate at 50 μL/well to seal the plate. The GF/B UniFilter plate is allowed to stand overnight at room temperature. The radioactivity of [^3H]-Ketanserin bound to the 5-HT2A receptor is measured using Microbeta2 (PerkinElmer) at a measurement time of 1 min/well. The Saturation curve is drawn from the measured value, and the Kd value is calculated from the slope of the Scatchard Plot.
(§4) (Binding Test of the Compound According to the Present Invention)
In advance, 0.5 μL of the compound solution dissolved in DMSO is dispensed into a microplate, and the cell membrane and the hot ligand are diluted with Assay buffer, respectively. Then, the Assay buffer containing the diluted cell membrane is dispensed into a microplate at 50 μL/well. Then, the radioactive ligand solution is dispensed into a microplate at 50 μL/well, and the plate is sealed. Then, it is allowed to stand at room temperature (25° C.) for 1.5 hours. During this period, 50 mmol/L Tris-HCl (pH 7.4) is dispensed into a GF/B UniFilter plate at 50 μL/well and allowed to stand at 4° C. for 1 hour or longer. After that, filtration is performed with Cell harvester (PerkinElmer). After the GF/B UniFilter plate is dried at room temperature, MicroScinti 20 is dispensed into the GF/B UniFilter plate at 50 μL/well to seal the plate. The GF/B UniFilter plate is allowed to stand overnight at room temperature. The radioactivity of [^3H]-Ketanserin bound to the 5-HT2A receptor is measured using Microbeta2 (PerkinElmer) at a measurement time of 1 min/well. The non-specific binding is calculated from the radioactivity of [^3H]-Ketanserin in the presence of 500 μmol/L Serotonin HCl which is the unlabeled ligand, and the total binding is calculated from the radioactivity of [^3H]-Ketanserin in the absence of the compound according to the present invention (Vehicle). Finally, the Ki value is calculated from the dose-response curve.
(§5) (The binding activity of the compound according to the present invention is calculated from the following binding inhibition rate (%).)
(§6) [formula] • a; mean cpm of non-specific binding • b; average cpm of total binding • c; cpm in the presence of the test compound

[2] = target: human recombinant 5-HT2C receptor (Homo sapiens (Human), UniProt P28335); assay: 5-HT2C receptor binding inhibition test ([3H]-Mesulergine); settings: Jump-In HEK cell membrane, 37° C. 2 hours
Procedure: Test Example 2: 5-HT2C Receptor Binding Inhibition Test
as §1
Cell membrane: 0.5 μg of Jump-In HEK cell membrane (expressing human recombinant 5-HT2C receptor) per well
as §2
Radioactive ligand: [^3H]-Mesulergine with a final concentration of around Kd value calculated by the following method
Non-specific ligand: Serotonin HCl with a final concentration of […]
as §3, with “37° C.” for “room temperature (25° C.)”, “2” for “1.5”, “[^3H]-Mesulergine” for “[^3H]-Ketanserin”, “5-HT2C” for “5-HT2A”
as §4
In advance, 0.5 μL of the compound solution dissolved in DMSO is dispensed into a microplate, and the cell membrane and the hot ligand are diluted with Assay buffer, respectively. Then, the Assay buffer containing the diluted cell membrane is dispensed into a microplate at 50 μL/well. Then, the radioactive ligand solution is dispensed into a microplate at 50 μL/well, and the plate is sealed. Then, it is allowed to stand at 37° C. for 2 hours. During this period, 50 mmol/L Tris-HCl (pH 7.4) is dispensed into a GF/B UniFilter plate at 50 μL/well and allowed to stand at 4° C. for 1 hour or longer. After that, filtration is performed with Cell harvester (PerkinElmer). After the GF/B UniFilter plate is dried at room temperature, MicroScinti 20 is dispensed into the GF/B UniFilter plate at 50 μL/well, and the plate is sealed. The GF/B UniFilter plate is allowed to stand overnight at room temperature. The radioactivity of [^3H]-Mesulergine bound to the 5-HT2C receptor is measured using Microbeta2 (PerkinElmer) at a measurement time of 1 min/well. The non-specific binding is calculated from the radioactivity of […] in the presence of 500 μmol/L Serotonin HCl which is the unlabeled ligand, and the total binding is calculated from the radioactivity of [^3H]-Mesulergine in the absence of the compound according to the present invention (Vehicle). Finally, the Ki value is calculated from the dose-response curve.
as §5, §6

[3] = read-out: human serotonin 5-HT2A receptor binding activity Ki
[4] = read-out: human serotonin 5-HT2C receptor binding activity Ki

Chain of human recombinant 5-HT2C receptor (P28335 33-458): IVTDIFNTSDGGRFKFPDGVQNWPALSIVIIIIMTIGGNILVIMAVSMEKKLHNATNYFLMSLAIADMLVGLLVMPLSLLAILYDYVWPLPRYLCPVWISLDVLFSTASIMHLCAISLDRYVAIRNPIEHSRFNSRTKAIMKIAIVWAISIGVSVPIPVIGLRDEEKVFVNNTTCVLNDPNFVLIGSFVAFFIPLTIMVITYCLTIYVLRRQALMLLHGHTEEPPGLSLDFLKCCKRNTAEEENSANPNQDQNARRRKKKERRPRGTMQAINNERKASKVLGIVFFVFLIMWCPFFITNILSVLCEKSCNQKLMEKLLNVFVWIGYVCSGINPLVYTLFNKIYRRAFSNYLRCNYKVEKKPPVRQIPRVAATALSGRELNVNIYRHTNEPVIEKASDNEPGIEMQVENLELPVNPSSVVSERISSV
Chain of human recombinant 5-HT2A receptor (P28223 whole entry): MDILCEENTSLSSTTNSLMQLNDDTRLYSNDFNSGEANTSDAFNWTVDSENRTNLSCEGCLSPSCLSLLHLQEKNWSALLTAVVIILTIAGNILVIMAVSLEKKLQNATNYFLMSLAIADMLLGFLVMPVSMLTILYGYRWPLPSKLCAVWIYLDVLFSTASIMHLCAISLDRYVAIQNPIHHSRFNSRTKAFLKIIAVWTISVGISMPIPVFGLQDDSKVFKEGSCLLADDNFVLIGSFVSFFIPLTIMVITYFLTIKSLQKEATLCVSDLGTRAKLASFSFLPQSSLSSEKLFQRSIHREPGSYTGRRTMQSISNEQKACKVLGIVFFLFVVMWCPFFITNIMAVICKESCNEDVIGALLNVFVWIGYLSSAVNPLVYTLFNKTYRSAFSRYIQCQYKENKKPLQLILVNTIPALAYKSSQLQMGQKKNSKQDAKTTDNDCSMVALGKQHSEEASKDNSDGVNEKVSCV

Row | Compound | Ki ([1]; read-out: h-5-HT2A Ki) [nM] | Ki ([2]; read-out: h-5-HT2C Ki) [nM] | Ki [1, 3] [nM] | Ki [2, 4] [nM]
1 | Cc1nc(CN(Cc2ccc(OCC(C)C)cc2)C2=NC(=O)C3(CCN(C)CC3)N2)co1 [Compound I-039] | 10 to 100 | < 10 |  | 
2 | Cc1nc(CN(Cc2ccc(OCC(C)C)c(F)c2)C2=NOC3(CCN(C)CC3)N2)co1 [Compound I-127] | < 10 | < 10 |  | 
3 | CC(C)COc1ccc(CN(Cc2cnn(C)n2)C2=NOC3(CCN(C)CC3)N2)cc1F [Compound I-107] | < 10 | < 10 |  | 
4 | Cc1nc(CN(Cc2ccc(OCC3CCC3)cc2)C2=NOC3(CCN(C)CC3)N2)co1 [Compound I-083] | < 10 | < 10 |  | 
5 | Cc1nc(CN(Cc2ccc(OCC(C)C)cc2)C2=NOC3(CCN(C)CC3)N2)c(C)o1 [Compound I-117] | 10 to 100 | 10 to 100 |  | 
6 | CCCOc1ccc(CN(Cc2coc(C)n2)C2=NOC3(CCN(C)CC3)N2)cc1 [Compound I-028] | < 10 | < 10 |  | 
7 | CC(C)COc1ccc(CN(Cc2cnn(C)n2)C2=NOC3(CCN(C)CC3)N2)c(F)c1 [Compound I-106] | < 10 | < 10 |  | 
8 | Cc1nc(CN(Cc2cc3ccc(Br)cc3s2)C2=NOC3(CCN(C)CC3)N2)co1 [Compound I-102] | < 10 | < 10 |  | 
9 | Cc1nc(CN(Cc2cc3ccccc3s2)C2=NOC3(CCN(C)CC3)N2)co1 [Compound I-123] | < 10 | < 10 |  | 
10 | Cc1nc(CN(Cc2ccc(OCC(C)C)cc2)C2=NOC3(CCNCC3)N2)co1 [Compound I-048] | < 10 | < 10 |  | 
11 | Cc1ccc(CN(Cc2ccc(OCC(C)C)cc2)C2=NOC3(CCN(C)CC3)N2)cn1 [Compound I-081] | < 10 | 100 to 500 |  | 
12 | CN1CCC2(CC1)NC(N(Cc1ccc(OCC(F)(F)F)c(F)c1)Cc1coc(C3CC3)n1)=NO2 [Compound I-116] | < 10 | < 10 |  | 
13 | Cc1nc(CN(Cc2ccc(OCC3CC3)cc2)C2=NOC3(CCN(C)CC3)N2)co1 [Compound I-079] | < 10 | < 10 |  | 
14 | CCCOc1ccc(CC2=NOC3(CCN(C)CC34CC4)N2Cc2ccc(F)cn2)cc1 (centres unmarked) [Compound I-026] | < 10 | < 10 |  | 
15 | Cc1nc(CN(Cc2nc3ccccc3s2)C2=NOC3(CCN(C)CC3)N2)co1 [Compound I-098] | < 10 | 10 to 100 |  | 
16 | CCCCc1ccc(CN(Cc2cnn(C)n2)C2=NOC3(CCN(C)CC3)N2)cc1 [Compound I-133] | < 10 | < 10 |  | 
17 | Cc1nc(CN(Cc2ccc(OCC(F)(F)C(F)(F)F)cc2)C2=NOC3(CCN(C)CC3)N2)co1 [Compound I-082] | < 10 | < 10 |  | 

Results, then the compound that gave them:

Row | Ki ([1]; read-out: h-5-HT2A Ki) [nM] | Ki ([2]; read-out: h-5-HT2C Ki) [nM] | Ki [1, 3] [nM] | Ki [2, 4] [nM] | Compound
18 |  |  | 1.11 | 0.787 | CCCc1ccc(CN(Cc2coc(C)n2)C2=NOC3(CCN(C)CC3)N2)cc1 [Compound I-087]
19 |  |  | 85.3 | 219 | CC(C)COc1ccc(CN=C2NC(=O)CC3(CCN(C)CC3)N2Cc2ccc(F)cc2)cc1 [Compound I-005]
20 |  |  | 5.2 | 2.19 | Cc1nc(CN(Cc2ccc(OCC(C)C)cc2)C2=NC(=O)C3(CCN(C)CC3)N2)cs1 [Compound I-057]
21 | 10 to 100 | 100 to 500 |  |  | Cc1nc(CN(Cc2cnc3ccccc3c2)C2=NOC3(CCN(C)CC3)N2)co1 [Compound I-095]
22 |  |  | 1.29 | 0.535 | Cc1nc(CN(Cc2ccc(OCC(C)C)c(F)c2)C2=NOC3(CCNCC3)N2)co1 [Compound I-130]
23 | < 10 | < 10 |  |  | CCCOc1ccc(CC2=NOC3(CCN(C)CC34CC4)N2Cc2cc(C)n(C)n2)cc1 (racemic) [Compound I-029]
24 | < 10 | 100 to 500 |  |  | Cc1cc(CN(Cc2ccc(OCC(C)C)cc2)C2=NOC3(CCN(C)CC3)N2)no1 [Compound I-075]
25 | 10 to 100 | 100 to 500 |  |  | CC(C)COc1ccc(CN(Cc2cnn(C)c2)C2=NOC3(CCN(C)CC3)N2)cc1 [Compound I-046]
26 | 100 to 500 | 100 to 500 |  |  | Cc1nc(CN(Cc2ccc(OCC(C)C)cc2)C2=NC3(CCN(C)CC3)ON2C)co1 [Compound I-052]
27 |  |  | 1.89 | 2.21 | CCCOc1ccc(CC2=NOC3(CCN(C)CC34CC4)N2Cc2ccn(C)n2)cc1 (centres unmarked) [Compound I-027]
28 | < 10 | 10 to 100 |  |  | CC(C)COc1ccc(CN(Cc2ccn(C3CC3)n2)C2=NOC3(CCN(C)CC3)N2)cc1 [Compound I-100]
29 | 10 to 100 | 10 to 100 |  |  | CCOCc1ccc(CN(Cc2coc(C)n2)C2=NOC3(CCN(C)CC3)N2)cc1 [Compound I-124]
30 | 10 to 100 | 10 to 100 |  |  | CCCOc1ccc(CC2=NOC3(CCN(C)CC3)N2Cc2ccn(C)n2)cc1 [Compound I-025]
31 | 10 to 100 | 10 to 100 |  |  | COc1ccc(CN(Cc2coc(C)n2)C2=NOC3(CCN(C)CC3)N2)nc1 [Compound I-121]
32 |  |  | 4.82 | 16.7 | CC(C)COc1ccc(CC2=NOC3(CCN(C)CC3)N2Cc2ccc(F)cc2)cc1 [Compound I-001]
33 | 10 to 100 | < 10 |  |  | Cc1nc(CN(Cc2ccsc2)C2=NOC3(CCN(C)CC3)N2)co1 [Compound I-073]
34 | < 10 | 10 to 100 |  |  | CC(C)COc1ccc(CN(Cc2ccn(C(F)F)n2)C2=NOC3(CCN(C)CC3)N2)cc1 [Compound I-015]
